Assay results published in US7811816B2, “Isolated CD8 +T lymphocytes specifically cytotoxic for a disease causing target cell” (Ortho-McNeil Pharmaeutical, Inc., priority 2001, dated 2010).
Marks after values point to notes of the source that are not given here. Values belong to the sequence of their own block, whether it stands above or below them.

Assays:
D^b class I molecules = target: T1, D^b class I molecules (Mus musculus, UniProt P01899); test: MHC class I stabilization assay on TAP- RMAS cells (H-2^b), flow cytometry; format: binding; conditions: for Stabilization of MHC: D^b, ratio of fluorescence intensity (with peptide - without peptide)/without peptide; for Binding to / stabilization of D^b, in words: MHC class I stabilization assay, RMAS cells
T1 construct: Antigen-transporting deficient (TAP^−) RMAS cells (H-2^b); endogenous in cells; host or cells: RMA-S (TAP 2 deficient, H-2^b)
T1 sequence (P01899 25-362): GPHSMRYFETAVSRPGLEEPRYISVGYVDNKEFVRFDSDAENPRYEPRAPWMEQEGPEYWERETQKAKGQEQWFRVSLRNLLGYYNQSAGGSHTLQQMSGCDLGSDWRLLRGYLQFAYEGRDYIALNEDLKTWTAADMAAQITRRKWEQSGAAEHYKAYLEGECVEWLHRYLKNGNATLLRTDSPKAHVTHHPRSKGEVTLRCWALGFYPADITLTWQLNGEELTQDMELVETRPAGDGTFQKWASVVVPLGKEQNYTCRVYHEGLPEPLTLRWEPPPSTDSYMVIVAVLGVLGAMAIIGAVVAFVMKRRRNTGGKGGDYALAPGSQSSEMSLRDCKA
T1 sequence (P01887 21-119 partner): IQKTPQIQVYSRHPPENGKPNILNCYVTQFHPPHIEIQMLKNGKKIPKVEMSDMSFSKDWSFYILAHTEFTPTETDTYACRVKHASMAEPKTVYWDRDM
Method: (§1) TAP 2 deficient RMA.S cells (FIG. 11B) or L^d transfected RMA.S cells (FIG. 11A) were incubated with indicated concentration of peptides at 28° C. overnight and then incubated at 37° C. for two to four hours. The cells were harvested and stained with mAb specific for L^d (FIG. 11B) or for D^b (FIG. 11A) and analyzed with FACScan.
(§2) The binding capacity of these synthetic peptides to L^d and D^b class I molecules were tested in an MHC class I stabilization assay (Cai et al. (1996) supra). Antigen-transporting deficient (TAP^−) RMAS cells (H-2^b) or L^d transfected RMAS (RMAS-L^d) cells were cultured in the presence of a titrated concentration of peptides at 27° C. After overnight culturing at 27° C., these cells were further cultured for two hours at 37° C. and the surface expression of L^d or D^b on the cells were analyzed by flow cytometry. […] Of the five peptides predicted bind to D^b, only IgE44 binds Db strongly and two peptides, IgE16 and IgE125, bind D^b weakly. […] Thus, a total of six peptides were identified that bind to either L^d or D^b MHC class I molecules.

[1] = system: peptides loaded RMAS (K^b, D^b) cells; test: In vitro generation of IgE peptide specific CTLs, 51Cr release against peptide loaded RMAS cells; format: cell-based; conditions: naive mouse CD8 T cells, Drosophila APC with D^b, B7-1, ICAM-1; Day 9
Method: CD8^+ T cells were purified from lymph nodes of CBF1/J mice (FIGS. 2A, 2B and 2D) or from B6, interferon γ knock out mice (IFNγ^−/−) or perform (PF^−/−) knock out mice (FIG. 2C). The purified CD8 T cells were cultured with indicated IgE peptides presented by SC2 cells transfected with D^b MHC class I, B7-1 (CD80) and ICAM-1 (CD54) molecules. Low dose of recombinant IL-2 (20 units/ml) was added to the culture at Day 3 and every other day thereafter. On Day 9, CTL activity was measured against ^51Cr labeled RMAS cells loaded with or without indicated IgE peptides. In FIG. 2D, anti-D^b mAb (20 μg/ml) was added at the beginning of CTL assay.
(§3) CTL Assay: Epitope-bearing (target) cells are used as target cells in a ^51 Cr release assay. 5×10^6 target cells in RPMI medium containing 4% fetal calf serum, 1% HEPES buffer and 0.25% gentamycin are labeled at 37° C. for one hour with 0.1 mCi ^51Cr. Cells are washed four times and diluted to 10^5 cells/ml in RPMI with 10% fetal bovine serum (HyClone). In a 96-well microtiter plate, 100 μl effector CTLs and 100 μl peptide-loaded, ^51Cr-labeled target cells are combined at ratios of 100:1, 20:1 and 4:1 (effector: target). K562 cells are added at a ratio of 20:1 (K562) to reduce natural killer cell background lysis. Non-specific lysis is assessed using cells labeled with ^51Cr as described above, but not bearing the epitope cell line. Controls to measure spontaneous release and maximum release of ^51Cr are included in duplicate. After incubation at 37° C. for six hours, the plates are centrifuged and the supernatants counted to measure ^51Cr release. Percent specific lysis is calculated using the following equation: […]
The ability of these IgE peptides in eliciting CTL responses was evaluated in vitro. As previously described, Drosophila cells transfected with MHC class I plus B7-1 and ICAM-1 are potent antigen presenting cells (APC) in activation of resting naïve CD8 T cells in vitro. Resting naïve CD8 T cells were purified from mouse lymph nodes and cultured with peptide loaded Drosophila cells transfected with L^d or D^b plus B7-1 and ICAM-1 in the absence of cytokines. IL-2 (20units/ml) was added at Day 3 and every other day thereafter. The CTL activity towards peptides loaded RMAS (K^b, D^b) cells or RMAS-L^d cells were measured on Day 9.

L^d class I molecules = target: T2, L^d class I molecules (Mus musculus, UniProt P01897); test: MHC class I stabilization assay on L^d transfected RMAS cells, flow cytometry; format: binding; conditions: for Stabilization of MHC: L^d, ratio of fluorescence intensity (with peptide - without peptide)/without peptide; for Binding to L^d, in words: MHC class I stabilization assay, RMAS-L^d cells
T2 construct: expressed in transfected cells; host or cells: RMA-S (RMAS-L^d), TAP-deficient
T2 sequence (P01897 25-362): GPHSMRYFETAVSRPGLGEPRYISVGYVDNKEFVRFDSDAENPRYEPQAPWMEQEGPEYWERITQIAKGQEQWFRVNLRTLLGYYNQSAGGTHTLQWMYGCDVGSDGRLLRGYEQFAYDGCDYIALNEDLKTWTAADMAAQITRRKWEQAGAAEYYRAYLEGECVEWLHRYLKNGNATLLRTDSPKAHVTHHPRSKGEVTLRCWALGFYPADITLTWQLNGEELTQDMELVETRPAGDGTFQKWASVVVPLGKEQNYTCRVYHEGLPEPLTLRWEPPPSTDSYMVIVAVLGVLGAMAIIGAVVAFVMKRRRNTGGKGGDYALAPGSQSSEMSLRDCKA
T2 sequence (P01887 21-119 partner): T1 sequence (P01887 21-119 partner)
Method: as §1, §2

[2] = system: peptides loaded RMAS-L^d cells; test: In vitro generation of IgE peptide specific CTLs, 51Cr release against peptide loaded RMAS-L^d cells; format: cell-based; conditions: naive mouse CD8 T cells, Drosophila APC with L^d, B7-1, ICAM-1; Day 9
Method: as §3
The ability of these IgE peptides in eliciting CTL responses was evaluated in vitro. […] The CTL activity towards peptides loaded RMAS (K^b, D^b) cells or RMAS-L^d cells were measured on Day 9.

[3] = system: T2 cells loaded with indicated peptides; test: CTL activity generated from PBMC of different donors with IgE peptides on transfected Drosophila cells, chromium release; format: cell-based, human; conditions: x: number of donor from whom anti-IgE CTL was generated; N: number of donor tested
Method: CD8 T cells were purified from individual donors and cultured with Drosophila cells transfected with HLA-A2, hB7-1, hB7-2, hICAM-1 and hLFA-3 molecules in the presence of indicated peptides. After being cultured for six days, low doses of hIL-2 was added to the culture and re-stimulated with peptides loaded autologous adherent cells for an additional seven days. The CTLs were then harvested and the specific killing activities were tested with ^51Cr labeled T2 cells that loaded with indicated peptides FIGS. 9A through 9D by a standard chromium release assay. [table]

Stabilization of MHC (D^b class I molecules): + (less than two-fold is scored as “+”)
Binding to / stabilization of D^b, in words (D^b class I molecules): weakly
Sequence: GHILNDVSV (Peptide antigen) [IgE 125]
Specific CTL activity induced by the peptide, D^b restricted [1]: No specific CTL activity

Binding to L^d, in words (L^d class I molecules): strongly
Binding to / stabilization of D^b, in words (D^b class I molecules; listed as IgE366): binds both L^d and D^b
Sequence: GSNQGFFIF (Peptide antigen) [IgE 366]
Stabilization of MHC (L^d class I molecules): ++^c (more than two fold is calculate as “++”)
Binding to / stabilization of D^b, in words (D^b class I molecules): ^cIgE 366 also stabilizes D^b class I molecules.
Specific CTL activity induced by the peptide, D^b restricted [1]: induce D^b restricted CTLs
Specific CTL activity induced by the peptide, L^d restricted [2]: inducing L^d restricted CTLs

Stabilization of MHC (L^d class I molecules): + (less than two-fold is scored as “+”)
Binding to L^d, in words (L^d class I molecules): weakly
Sequence: HSTIQLYCF (Peptide antigen) [IgE 114]

Binding to L^d, in words (L^d class I molecules): strongly
Sequence: KPCKGTASM (Peptide antigen) [IgE 11]
Stabilization of MHC (L^d class I molecules): ++ (more than two fold is calculate as “++”)
Specific CTL activity induced by the peptide, L^d restricted [2]: induces antigen specific CTLs

Binding to / stabilization of D^b, in words (D^b class I molecules): strongly
Sequence: MSTVNFPAL (Peptide antigen) [IgE 44]
Stabilization of MHC (D^b class I molecules): ++ (more than two fold is calculate as “++”)
Specific CTL activity induced by the peptide, D^b restricted [1]: specifically lysed

Sequence: QMFTCRVAHT (Peptide antigen) [IgE 887]
Specific Killing (x/N) [3]: 1/4

Sequence: QVMDVDLSTA (Peptide antigen) [IgE 898]
Specific Killing (x/N) [3]: 3/4

Sequence: SLLTVSGAWA (Peptide antigen) [IgE 876]
Specific Killing (x/N) [3]: 0/5

Sequence: SLNGTTMTL [IgE 47]
Specific Killing (x/N) [3]: 7/8

Stabilization of MHC (D^b class I molecules): + (less than two-fold is scored as “+”)
Binding to / stabilization of D^b, in words (D^b class I molecules): weakly
Sequence: TASMTLGCL (Peptide antigen) [IgE 16]
Specific CTL activity induced by the peptide, D^b restricted [1]: No specific CTL activity

Sequence: TLACLIQNFM (Peptide antigen) [IgE 895]
Specific Killing (x/N) [3]: 3/4

Sequence: TLTVTSTLPV (Peptide antigen) [IgE 884]
Specific Killing (x/N) [3]: 8/8

Sequence: WLEDGQVMDV (Peptide antigen) [IgE 883]
Specific Killing (x/N) [3]: 1/5

Sequence: WLSDRTYTC (Peptide antigen) [IgE 185]
Specific Killing (x/N) [3]: 0/8

Sequence: WVDNKTFSV [IgE 96]
Specific Killing (x/N) [3]: 3/8

Sequence: YATISLLTV (Peptide antigen) [IgE 890]
Specific Killing (x/N) [3]: 4/5
